Test results taken from patent US8859549B2, “Potassium channel modulators” (AbbVie, Inc., priority 2011, dated 2014).

Tests used:
Sprague-Dawley rats = experiment: Spinal Nerve Ligation (SNL) model of neuropathic pain, tactile allodynia; type: in vivo, rat; conditions: about 30 mg/kg i.p., 30 minutes or more before testing
From the text: Adult male Sprague-Dawley rats (250-300 g body weight, Charles River Laboratories, Portage, Mich.) were used. Animal handling and experimental protocols were approved by the Institutional Animal Care and Use Committee (IACUC) at Abbott Laboratories. For all surgical procedures, animals were maintained under isoflurane anesthesia (4-5% to induce, 1-3% to maintain), and the incision sites were sterilized using a 10% povidone-iodine solution prior to and after surgeries.
Tactile (mechanical) allodynia was measured using calibrated von Frey filaments (Stoelting, Wood Dale, Ill.) as described in Chaplan, S. R., F. W. Bach, J. M. Pogrel, J. M. Chung and T. L. Yaksh, 1994, Quantitative assessment of tactile allodynia in the rat paw, J. Neurosci. Methods, 53, 55. Rats were placed into inverted individual plastic containers (20×12.5×20 cm) on top of a suspended wire mesh grid, and acclimated to the test chambers for 20 minutes. The von Frey filaments were presented perpendicularly to the plantar surface of the selected hind paw, and then held in this position for approximately 8 sec with enough force to cause a slight bend in the filament. Positive responses included an abrupt withdrawal of the hind paw from the stimulus, or flinching behavior immediately following removal of the stimulus. A 50% withdrawal threshold was determined using an up-down procedure (Dixon, W. J., 1980, Efficient analysis of experimental observations, Ann. Rev. Pharmacol. Toxicol., 20, 441). […] Tactile allodynia thresholds were also assessed in several control groups, including naive, sham-operated, and saline infused animals as well as in the contralateral paws of nerve-injured rats. To evaluate the anti-nociceptive effects, animals were administered vehicle or test compound and tactile allodynia was assessed 30 minutes after i.p. administration.
A model of spinal nerve ligation-induced (SNL model) neuropathic pain as originally described by Kim and Chung (Kim, S. H. and J. M. Chung, 1992, Pain 50, 355) was used to test a compound of the present application The left L5 and L6 spinal nerves of the rat were isolated adjacent to the vertebral column and tightly ligated with a 5-0 silk suture distal to the DRG, and care taken to avoid injury of the L4 spinal nerve. The same procedure was performed on Sham rats, but without nerve ligation. All animals were allowed to recover for at least one week and not more than three weeks prior to assessment of tactile allodynia.
Compounds were injected (i.p) 30 minutes or more before testing.

KCNQ 2/3 channels = target: T1, KCNQ 2/3 channels (Homo sapiens, UniProt O43525+O43526); experiment: KCNQ 2/3 channel activation, thallium flux FLIPR assay (BTC-AM dye); type: cell-based; conditions: for Emax: HEK293, maximum response relative to the response of 10 μM retigabine (set at 100%), HEK293 KCNQ2/KCNQ3 cells, read-out: % MAX; for EC50: HEK293 cells stably expressing human KCNQ2 and KCNQ3 subunits, thallium-induced fluorescence, 4 min compound incubation
T1 construct: expressed in transfected cells; host or cells: HEK293
Summary of the method: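 HEK293 cells stably expressing human KCNQ2/KCNQ3 were loaded with BTC-AM (3 μg/mL, 2 h, RT) and preincubated with compound for 4 min in pH 7.3 gluconate buffer containing 0.1 mM ouabain. Flux was triggered by 6 mM TlNO3/10 mM K2SO4 and read for 3 min; EC50 came from summed responses over basal, with maximum relative to 10 μM retigabine (100%).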

Structure (SMILES)	Emax (KCNQ 2/3 channels)	EC50 (KCNQ 2/3 channels)	change in paw withdrawal latency versus vehicle (Sprague-Dawley rats)
O=C(CC1CC2CCC1C2)Nn1nc(-c2ccc(C(F)(F)F)nc2)c2ccccc2c1=O (racemic) [Example 43, (±)-2-[(exo)-bicyclo[2.2.1]hept-2-yl]-N-{1-oxo-4-[6-(trifluoromethyl)pyridin-3-yl]phthalazin-2(1H)-yl}acetamide]	149%	143 nM	statistically significant change
CC(C)(C)OC(=O)NCc1nn(NC(=O)Cc2ccc(Cl)cc2)c(=O)c2ccccc12 [Example 41, tert-butyl[(3-{[(4-chlorophenyl)acetyl]amino}-4-oxo-3,4-dihydrophthalazin-1-yl)methyl]carbamate]	90.3%	975 nM	statistically significant change
C[C@@H]1CN(c2nn(NC(=O)Cc3ccc(Cl)cc3)c(=O)c3ccccc23)C[C@H](C)O1 [Example 81, 2-(4-chlorophenyl)-N-{4-[cis-2,6-dimethylmorpholin-4-yl]-1-oxophthalazin-2(1H)-yl}acetamide]	85.1%	663 nM	statistically significant change
O=C(Cc1cc(F)cc(F)c1)Nn1nc(S(=O)(=O)c2ccccc2)c2ccccc2c1=O [Example 68, 2-(3,5-difluorophenyl)-N-[1-oxo-4-(phenylsulfonyl)phthalazin-2(1H)-yl]acetamide]	79.9%	69.9 nM	statistically significant change
CC(C)(CC(=O)Nn1nc(-c2ccnc(Cl)c2)c2ccccc2c1=O)c1ccccc1 [Example 48, N-[4-(2-chloropyridin-4-yl)-1-oxophthalazin-2(1H)-yl]-3-methyl-3-phenylbutanamide]	133%	389 nM	
O=C(Cc1ccc(Cl)cc1)Nn1nc(N2CCCC2)c2ccccc2c1=O [Example 21, 2-(4-chlorophenyl)-N-[1-oxo-4-(pyrrolidin-1-yl)phthalazin-2(1H)-yl]acetamide]	136%	198 nM	
NCc1nn(NC(=O)Cc2ccc(Cl)cc2)c(=O)c2ccccc12 [Example 42, N-[4-(aminomethyl)-1-oxophthalazin-2(1H)-yl]-2-(4-chlorophenyl)acetamide]	8.66%		
CS(=O)(=O)NCc1nn(NC(=O)Cc2ccc(Cl)cc2)c(=O)c2ccccc12 [Example 80, 2-(4-chlorophenyl)-N-[4-{[(methylsulfonyl)amino]methyl}-1-oxophthalazin-2(1H)-yl]acetamide]	26.5%		
O=C(CC1CC2CCC1C2)Nn1nc(C(O)c2ccccc2)c2ccccc2c1=O (racemic) [Example 102, (±)-2-[(exo)-bicyclo[2.2.1]hept-2-yl]-N-{4-[hydroxy(phenyl)methyl]-1-oxophthalazin-2(1H)-yl}acetamide]	212%	894 nM	
O=C(Cc1ccc(O)cc1)Nn1nc(N2CCOCC2)c2ccccc2c1=O [Example 144, 2-(4-hydroxyphenyl)-N-[4-(morpholin-4-yl)-1-oxophthalazin-2(1H)-yl]acetamide]	39.9%	6870 nM	
O=C(Cc1cc(F)cc(F)c1)Nn1nc(Sc2ccccc2)c2ccccc2c1=O [Example 57, 2-(3,5-difluorophenyl)-N-[1-oxo-4-(phenylsulfanyl)phthalazin-2(1H)-yl]acetamide]	116%	38.1 nM	
O=C(CC1CC2CCC1C2)Nn1nc(S(=O)(=O)c2ccc(Br)cc2)c2ccccc2c1=O (racemic) [Example 204, (±)-2-[(exo)-bicyclo[2.2.1]hept-2-yl]-N-{4-[(4-bromophenyl)sulfonyl]-1-oxophthalazin-2(1H)-yl}acetamide]	164%	24 nM	
CC(C)(C)OC(=O)NCc1nn(NC(=O)CC2CCC(F)(F)CC2)c(=O)c2ccccc12 [Example 124, tert-butyl[(3-{[(4,4-difluorocyclohexyl)acetyl]amino}-4-oxo-3,4-dihydrophthalazin-1-yl)methyl]carbamate]	72.5%	8050 nM	
O=C(CC1CC2CCC1C2)Nn1nc(Cc2ccc(Cl)nc2)c2ccccc2c1=O (racemic) [Example 30, (±)-2-[(exo)-bicyclo[2.2.1]hept-2-yl]-N-{4-[(6-chloropyridin-3-yl)methyl]-1-oxophthalazin-2(1H)-yl}acetamide]	122%	58.4 nM	

Further lines, with some results ahead:

Emax (KCNQ 2/3 channels)	EC50 (KCNQ 2/3 channels)	Structure (SMILES)	change in paw withdrawal latency versus vehicle (Sprague-Dawley rats)
118%	40.9 nM	O=C(Cc1ccc(Cl)cc1)Nn1nc(S(=O)(=O)c2ccccc2)c2ccccc2c1=O [Example 69, 2-(4-chlorophenyl)-N-[1-oxo-4-(phenylsulfonyl)phthalazin-2(1H)-yl]acetamide]	statistically significant change
127%	126 nM	O=C(CC1CC2CCC1C2)Nn1nc(-c2ccnc(C(F)(F)F)c2)c2ccccc2c1=O (racemic) [Example 76, (±)-2-[(exo)-bicyclo[2.2.1]hept-2-yl]-N-{1-oxo-4-[2-(trifluoromethyl)pyridin-4-yl]phthalazin-2(1H)-yl}acetamide]	statistically significant change
173%	2700 nM	O=C(CC1CC2CCC1C2)Nn1nc(Cc2ccncc2)c2ccccc2c1=O (racemic) [Example 97, (±)-2-[(exo)-bicyclo[2.2.1]hept-2-yl]-N-[1-oxo-4-(pyridin-4-ylmethyl)phthalazin-2(1H)-yl]acetamide]	
15.6%		O=C(Cc1ccc2ccccc2c1)Nn1nc(N2CCOCC2)c2ccccc2c1=O [Example 166, N-[4-(morpholin-4-yl)-1-oxophthalazin-2(1H)-yl]-2-(naphthalen-2-yl)acetamide]	
75.3%	11800 nM	CC(C)(C)CC(=O)Nn1nc(N2CCOCC2)c2ccccc2c1=O [Example 135, 3,3-dimethyl-N-[4-(morpholin-4-yl)-1-oxophthalazin-2(1H)-yl]butanamide]	
105%	474 nM	CC1CN(c2nn(NC(=O)Cc3cc(F)cc(F)c3)c(=O)c3ccccc23)CC(C)O1 (centres unmarked) [Example 60, 2-(3,5-difluorophenyl)-N-[4-(2,6-dimethylmorpholin-4-yl)-1-oxophthalazin-2(1H)-yl]acetamide]	
34.2%		COc1ccc(CC(=O)Nn2nc(N3CCOCC3)c3ccccc3c2=O)c(OC)c1 [Example 170, 2-(2,4-dimethoxyphenyl)-N-[4-(morpholin-4-yl)-1-oxophthalazin-2(1H)-yl]acetamide]	
140%	84.2 nM	O=C(Cc1ccc(Cl)cc1)Nn1nc(N2CCCCC2)c2ccccc2c1=O [Example 24, 2-(4-chlorophenyl)-N-[1-oxo-4-(piperidin-1-yl)phthalazin-2(1H)-yl]acetamide]	
7.89%		O=C(Cc1ccccc1Cl)Nn1nc(N2CCOCC2)c2ccccc2c1=O [Example 151, 2-(2-chlorophenyl)-N-[4-(morpholin-4-yl)-1-oxophthalazin-2(1H)-yl]acetamide]	
